Data set [1] relates to adjuvant arthritis induced by Freund's adjuvant. Briefly: Adjuvant arthritis: paw volume and ankle joint. Format: in vivo, Wistar rats. The note with it: for Prevention %, paw volume Day 14 / Prevention %, paw volume Day 28: vs AdA. The source says: Our experiments were scheduled to test the influence of MASA on the progress of adjuvant arthritis in comparison with MD and ASA. […] Each standard cage housed 7 rats with unlimited access to drinking water and granulated standard feed. […] All efforts were made to minimize animal suffering and to reduce the number of animals used. A modified standard procedure for inducting and evaluating the progress of chronic adjuvant arthritis was used (Bellavite P, Ortolani R, Conforti A, Immunology and Homeopathy. 3. Experimental Studies on Animal Models, Advance Access Publication 2.05, 2006, 171-186). […] The solutions of test substances were prepared ex tempore. […] Test solutions were introduced to animal p.o. by catheter into the stomach. […] The effects of test substances were evaluated using the following criteria: The oedema, i.e. the volume of hind paw was measured by oncometer. The percentage of prevention (inhibition of oedema) was calculated according to formula: P(%)=(Vc−Vt)/Vc×100, where Vc—paw volume in control group Vt—paw volume in test group P—Prevention in % (inhibition of oedema).

The subject of data set [2] is WBC, CRP, CIC in adjuvant arthritis. Briefly: Adjuvant arthritis: WBC, CRP and CIC in blood. Format: in vivo, Wistar rats. Here is the method: Our experiments were scheduled to test the influence of MASA on the progress of adjuvant arthritis in comparison with MD and ASA. Experiments were conducted on Wistar rats with starting body mass of 153-185 g. Rats were kept in climatized rooms at 22±1° C., relative humidity 60±5% and 12/12-hour light/darkness cycle. Each standard cage housed 7 rats with unlimited access to drinking water and granulated standard feed. All experiments were carried out in accordance with the European Community Council's Directive of 24 Nov. 1986 (86/609/EEC) relative to experimental animal care. All efforts were made to minimize animal suffering and to reduce the number of animals used.
A modified standard procedure for inducting and evaluating the progress of chronic adjuvant arthritis was used (Bellavite P, Ortolani R, Conforti A, Immunology and Homeopathy. 3. Experimental Studies on Animal Models, Advance Access Publication 2.05, 2006, 171-186). Rats were injected into the hind foot pad 0.1 ml and intraperitonealy with 0.05 ml of complete Freund's adjuvant solution.
Hematological indices were determined by standard methods on hematological analyzer ? PENTRA 120 ? , CRP was determined on ? INTEGRA 400+ ? . Levels of CIC in blood serum were determined spectrometrically, using […].

Data set [3] concerns platelet aggregation. Briefly: Platelet aggregation ex vivo after 3 days treatment. Format: in vivo, rats. The note with it: 5 mg/kg/d p.o. 3 days. As to the method: Platelet aggregation was studied using whole blood impedance aggregometry on Multiplate (Multiple Platelet Function Analyzer, Dynabyte Medical, Germany) (Toth O et al, Thromb Haemost 2006; 96:781-788. […] Blood samples for in vitro experiment were collected from healthy donor B. […] In the ex vivo experiment blood was collected into plastic tubes covered with hirudin (Dynabyte Medical, Germany) from narcotized rats that were treated for 3 previous days with test substances p.o. The measurements were performed according to modified Dynabyte Medical protocol. […] After 5 min incubation and stirring at 37° C., measurements were initiated by adding of the appropriate agonist solution (sourced from Dynabyte Medical, Germany): After the thrombosis experiment the narcotized animals who received test substances for 3 days were used for platelet aggregation test ex vivo. […] Blood samples were used for measurement between 30 min and 4 h after collection. The measurements were performed according to modified Dynabyte Medical protocol (see above under Platelet aggregation).

In data set [4] the test system is Wistar rats. As to conditions: rats p.o., cited from earlier work.
The test system of data set [5] is serum lipid levels (C, HDL, LDL, TG). Briefly: Chronic hyperlipidemia model (Triton WR1339, 3 weeks). In kind it is in vivo, Wistar rats. The note with it: NA 50 mg/kg/d p.o.; TR 250 mg/kg 3x/week. As to the method: Male Wistar rats were used. Animals were held in climatized rooms 22±1° C. with relative humidity 60±5%, and 12/12-hour light/dark cycle with free access to water and feed. Initial weight of animals was 220-240 g. Experimental chronical (subchronical) hyperlipidemia/hypercholesterolemia was induced by TR using the method described by Levine and Saltzman (Levine S, Saltzman A, J Pharmacol Toxicol Meth 2007; 55:224-226). Animals received 250 mg/kg of TR solution via tail vein three times a week for 3 weeks. Solutions of test substances or water for Control and TR group was introduced p.o. once a day one hour before injection of TR solution or taking a blood sample according to the following scheme:
Blood for biochemical analyses was obtained after 1, 2 and 3 weeks (on the next day after the TR injection) by cardiac punction under ether narcosis. Serum was separated by centrifugation and analyzed for total C, HDL, LDL and TG levels by commercial kits. Statistics.

Data set [6] deals with blood flow in the right ear artery. Briefly: Cutaneous vasodilatation caused by nicotinic acid, ear artery blood flow. In kind it is in vivo, Wistar rats. As to conditions: 15 mg/kg s.c.; maximal change to baseline. Here is the method:
Model. […] Blood pressure was measured in left carotid artery, ECG recorded by standard II lead. […] Blood flow, ECG and arterial pressure were registered by AD Instruments PowerLab systems and stored in computer for further processing. […] The average blood flow data for each animal were calculated taking into account the average blood pressure and compared with initial and control. […] Statistics.

For the molecule `CC(=O)Oc1ccccc1C(=O)O` [ASA, acetylsalicylic acid], in data set [1] (10 mg/kg daily p.o.), the “Dimensions of ankle joint on Day 14” value was 7.2 ± 0.12 mm, the “Dimensions of ankle joint on Day 28” value came out at 6.8 ± 0.14 mm, the “Paw volume on Day 14” value is 2.53 ± 0.10 mL and the “Paw volume on Day 28” value came out at 2.08 ± 0.12 mL. Moreover, in data set [1] (10 mg/kg daily p.o.), the “Prevention %, paw volume Day 14” value is given as −7% and the “Prevention %, paw volume Day 28” value was 7%. For the same molecule, in data set [1] (100 mg/kg daily p.o.), the “Dimensions of ankle joint on Day 14” value is 6.9 ± 0.15 mm, the “Dimensions of ankle joint on Day 28” value is 7.1 ± 0.16 mm, the “Paw volume on Day 14” value came out at 2.35 ± 0.14 mL and the “Paw volume on Day 28” value worked out at 1.52 ± 0.07 mL. Also, in data set [1] (100 mg/kg daily p.o.), the “Prevention %, paw volume Day 14” value stood at 3% and the “Prevention %, paw volume Day 28” value turned out to be 32%. Moreover, in data set [2] (10 mg/kg daily p.o.), the “CIC units, Day 14” value was determined as 10.8 ± 0.74 units; the “CIC units, Day 28” value stood at 8.2 ± 0.53 units; the “CRP, Day 14” value stood at 0.26 ± 0.01 mg/L; the “CRP, Day 28” value turned out to be 0.19 ± 0.01 mg/L. Besides, in data set [2] (100 mg/kg daily p.o.), the “CIC units, Day 14” value is reported as 15.0 ± 1.23 units; the “CIC units, Day 28” value is recorded as 14.4 ± 1.66 units; the “CRP, Day 14” value is 0.29 ± 0.01 mg/L; the “CRP, Day 28” value was 0.18 ± 0.02 mg/L. In data set [3] (AA induced), the AUC is 550 ± 31.3^2 AU*min and the Amax was 86.1 ± 6.8^2 AU. In data set [3] (ADP induced), the AUC was 768 ± 53.2 AU*min and the Amax is reported as 150.3 ± 13.5 AU. For the same molecule, in data set [3] (PGE1 + ADP induced), the AUC came out at 794 ± 48.6 AU*min and the Amax is given as 147.2 ± 11.8 AU. Also, the LD50 in data set [4] (given by Bayer AG) was over 1100 mg/kg. Besides, the “Acute toxicity (LD50)” value in data set [4] (given by Boehringer Ingelheim, Acros Chemicals, Sigma-Aldrich) is 200 mg/kg.
Consider `C[N+](C)(C)NCCC(=O)[O-].O.O` [MD, 3-(Trimethylammonioamino)propanoate dihydrate], for which, in data set [1] (100 mg/kg daily p.o.), the “Dimensions of ankle joint on Day 14” value is reported as 7.0 ± 0.13 mm, the “Dimensions of ankle joint on Day 28” value came to 7.0 ± 0.13 mm, the “Paw volume on Day 14” value worked out at 2.60 ± 0.21 mL and the “Paw volume on Day 28” value turned out to be 1.93 ± 0.13 mL. Moreover, in data set [1] (100 mg/kg daily p.o.), the “Prevention %, paw volume Day 14” value is −7% and the “Prevention %, paw volume Day 28” value was 13%. Besides, in data set [2] (100 mg/kg daily p.o.), the “CIC units, Day 14” value was found to be 11.8 ± 2.22 units; the “CIC units, Day 28” value was 8.6 ± 0.93 units; the “CRP, Day 14” value turned out to be 0.26 ± 0.02 mg/L; the “CRP, Day 28” value is 0.17 ± 0.02 mg/L. For the same molecule, in data set [2] (100 mg/kg daily p.o.), the “Leucocytes (WBC), Day 14” value is reported as 14.42 ± 1.41^# 10^3/mm^3 and the “Leucocytes (WBC), Day 28” value was 15.55 ± 1.26^# 10^3/mm^3.
For `O=C(O)c1cccnc1` [NA, nicotinic acid], in data set [5], the “HDL after 1 week (HDL1)” value is 111.3 ± 9.1 mg/dL, the “HDL after 2 weeks (HDL2)” value was 144.7 ± 13.5 mg/dL, the “HDL after 3 weeks (HDL3)” value came to 127.3 ± 10.9 mg/dL and the “LDL after 1 week (LDL1)” value was 216.3 ± 14.0 mg/dL. In addition, in data set [5], the “LDL after 2 weeks (LDL2)” value came out at 250.3 ± 20.6 mg/dL, the “LDL after 3 weeks (LDL3)” value was 265.1 ± 18.4 mg/dL, the “TG after 1 week (TG1)” value came to 734 ± 81.6 mg/dL and the “TG after 2 weeks (TG2)” value was found to be 860 ± 73.8 mg/dL. Also, in data set [5], the “TG after 3 weeks (TG3)” value was found to be 828 ± 44.7 mg/dL, the “Total C after 1 week (C1)” value was found to be 345 ± 15.7 mg/dL, the “Total C after 2 weeks (C2)” value came to 401.1 ± 25.1 mg/dL and the “Total C after 3 weeks (C3)” value amounted to 405.5 ± 25.9 mg/dL. For the same molecule, the “Changes in blood flow, %” value in data set [6] is 55.75 ± 11.5 %.

(Values after patent US8889902B2, “Acetylsalicylic acid salts” (priority 2009, dated 2014).)
